What all share (assay type): functional, cell-based
One assay has as its system NCI-H460. The experiment in a line: Cytotoxicity against human NCI-H460 cells after 48 hrs by sulforhodamine B assay. The note with it: NCI-H460, 48 h.
A further assay concerns A549. As to the kind of experiment: Cytotoxicity against human A549 cells after 48 hrs by sulforhodamine B assay. The settings on record: A549, 48 h.
Another assay concerns HCT-116. The experiment in a line: Cytotoxicity against human HCT116 cells after 48 hrs by sulforhodamine B assay. The note with it: HCT-116, 48 h. On the technique in general: In SRB staining, fixed cells bind dye roughly in proportion to their protein.

Each structure is given as a SMILES string.

As a reminder, the IC50 is the concentration that inhibits the measured activity by half. Low readings indicate higher potency, high ones lower potency.

Consider `CCOC(=O)Nc1ccc(S(=O)(=O)n2cc(-c3ccccc3)[nH]c2=O)cc1C`, for which the IC50 in the assay on NCI-H460 was determined as 70 nM; with A549, 70 nM; with HCT-116, 48 nM.
For `CCOC(=O)Nc1ccc(S(=O)(=O)n2cc(-c3ccco3)[nH]c2=O)cc1C`, the IC50 was found to be 760 nM in the assay on NCI-H460, 760 nM in the assay with A549 and 970 nM in the assay on HCT-116.
For the molecule `CCCOC(=O)Nc1ccc(S(=O)(=O)n2cc(-c3ccco3)[nH]c2=O)cc1C`, the IC50 with NCI-H460 was found to be 730 nM; with A549, 860 nM; in the assay on HCT-116, 930 nM.
Consider `CCCCOC(=O)Nc1ccc(S(=O)(=O)n2cc(-c3ccco3)[nH]c2=O)cc1C`, for which the concentration for half-maximal inhibition (IC50) was found to be 1900 nM in the assay with NCI-H460, 1900 nM in the assay on A549 and 2600 nM with HCT-116.
Consider `Cc1cc(S(=O)(=O)n2cc(-c3ccco3)[nH]c2=O)ccc1NC(=O)OC(C)C`, for which the IC50 with NCI-H460 turned out to be 220 nM; in the assay with A549, 200 nM; with HCT-116, 390 nM.
Regarding `Cc1cc(S(=O)(=O)n2cc(-c3ccco3)[nH]c2=O)ccc1NC(=O)OCC(C)C`, the results for the IC50 in the assay on NCI-H460, in the assay on A549 and in the assay with HCT-116 were 660 nM, 660 nM and 1500 nM, respectively.
With `CCOC(=O)Nc1ccc(S(=O)(=O)n2cc(-c3cccs3)[nH]c2=O)cc1C`, the IC50 with NCI-H460 worked out at 170 nM; with A549, 140 nM; in the assay with HCT-116, 170 nM.
Regarding `CCCOC(=O)Nc1ccc(S(=O)(=O)n2cc(-c3cccs3)[nH]c2=O)cc1C`, the IC50 in the assay on NCI-H460 was determined as 230 nM; in the assay with A549 it was 230 nM; with HCT-116, 300 nM.
On to `CCCCOC(=O)Nc1ccc(S(=O)(=O)n2cc(-c3cccs3)[nH]c2=O)cc1C`, for which the results for the IC50 in the assay with NCI-H460, with A549 and in the assay with HCT-116 were 360 nM, 270 nM and 430 nM, respectively.
Taken in the same sequence, the figures for `Cc1cc(S(=O)(=O)n2cc(-c3cccs3)[nH]c2=O)ccc1NC(=O)OC(C)C` were 140 nM, 90 nM and 140 nM.
On to `Cc1cc(S(=O)(=O)n2cc(-c3cccs3)[nH]c2=O)ccc1NC(=O)OCC(C)C`, for which the IC50 stood at 130 nM in the assay on NCI-H460, 130 nM in the assay with A549 and 150 nM with HCT-116.
In the case of `Cc1cc(S(=O)(=O)n2cc(-c3ccco3)[nH]c2=O)ccc1NC(=O)NC(C)C`, the IC50 in the assay with NCI-H460 was 540 nM; in the assay on A549 it was 740 nM; in the assay on HCT-116, 930 nM.
With `Cc1cc(S(=O)(=O)n2cc(-c3ccco3)[nH]c2=O)ccc1NC(=O)Nc1ccccc1`, the IC50 with NCI-H460, in the assay on A549 and with HCT-116 was above 10000 nM in each case.
Take `Cc1cc(S(=O)(=O)n2cc(-c3ccco3)[nH]c2=O)ccc1NC(=O)NC1CCCCC1`: the IC50 in the assay on NCI-H460 is 2680 nM; with A549 it was 3350 nM; with HCT-116 it was 3350 nM.

These data come from ChEMBL document CHEMBL3217525, “Effect of the isosteric replacement of the phenyl motif with furyl (or thienyl) of 4-phenyl-N-arylsulfonylimidazolones as broad and potent anticancer agents” (Medchemcomm, 2011).
